Values joined by “and” are separate entries in the source; they are usually repeats but may differ in a detail not shown here. Equal entries are not always repeated.
Legend:
Format in all cases: biochemical
Mouse α-FXIIa = target: T1, Mouse α-FXIIa (Mus musculus, UniProt Q80YC5); test: FXIIa protease inhibition assay with fluorogenic substrate Boc-Gln-Gly-Arg-AMC
T1 construct: Mouse α-FXIIa; purchased Molecular Innovations MFXIIA
T1 sequence (Q80YC5 355-597 limits assumed): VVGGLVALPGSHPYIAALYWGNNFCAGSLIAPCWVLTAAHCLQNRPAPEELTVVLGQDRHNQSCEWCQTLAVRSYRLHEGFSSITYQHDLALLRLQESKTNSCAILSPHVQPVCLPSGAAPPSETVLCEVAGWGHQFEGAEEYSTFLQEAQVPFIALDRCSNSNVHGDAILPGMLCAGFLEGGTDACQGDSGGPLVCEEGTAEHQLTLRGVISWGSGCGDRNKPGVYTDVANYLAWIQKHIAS
T1 sequence (Q80YC5 20-354 limits assumed): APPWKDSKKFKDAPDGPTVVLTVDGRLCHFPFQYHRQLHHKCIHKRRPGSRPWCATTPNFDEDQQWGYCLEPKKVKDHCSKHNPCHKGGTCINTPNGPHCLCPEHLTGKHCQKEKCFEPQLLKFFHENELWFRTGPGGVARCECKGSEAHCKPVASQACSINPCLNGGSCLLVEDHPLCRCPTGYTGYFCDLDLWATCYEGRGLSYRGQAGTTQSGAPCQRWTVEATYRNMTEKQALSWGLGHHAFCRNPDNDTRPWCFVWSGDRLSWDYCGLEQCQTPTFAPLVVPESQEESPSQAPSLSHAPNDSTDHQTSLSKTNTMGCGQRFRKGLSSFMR
Experimental: (§1) In order to test the inhibitory activity of peptides without prior purification, we developed the following method. […] After solid-phase peptide synthesis, cleavage, and ether precipitation, the peptides were chemically cyclized and their Ki values were determined in a FXIIa activity assay using a fluorogenic substrate.
(§2) Protease inhibition assays
(§3) The inhibitory activity of peptides was determined by measuring the residual protease activity with a fluorogenic substrate. The assay was performed in buffer containing 10 mM Tris-Cl, pH […]
(§4) 1% (v/v) DMSO in a volume of 150 µl. FXIIa activity was measured with the fluorogenic substrate Boc-Gln-Gly-Arg-AMC (Bachem) at a final concentration of 50 µM. Mouse α-FXIIa (Molecular Innovations cat # MFXIIA) and human β-FXIIa (Molecular Innovations cat # HFXIIAB) were used at final concentrations of 0.4 nM. The reaction was pipetted as follows: 50 µl of bicyclic peptide in assay buffer were added to 50 µl of FXIIa in assay buffer and incubated for 10 minutes at 25°C before 50 µl of 150 µM fluorogenic substrate in assay buffer were added to measure the residual protease activity with an Infinite M200Pro fluorescence plate reader (excitation at 368 nm, emission at 467 nm; Tecan) for a period of 30 minutes with a read every minute at 25°C. The Tecan software i-control (version 1.1) was used for data analysis. Stock solutions of 1 mM bicyclic peptide were prepared by either dissolving the unpurified cyclization reaction with water or by dissolving purified and lyophilized peptide in water. The bicyclic peptides were serially diluted two-fold using assay buffer. Sigmoidal curves were fitted to the data using the following dose response equation (1), wherein x = peptide concentration, y = % protease activity, and p = Hill slope. IC50 values were derived from the fitted curve.
(§5) The inhibition constants (Ki) were calculated according to the equation of Cheng and Prusoff, Ki = IC50/(1+([S]0/Km), wherein IC50 is the functional strength of the inhibitor, [S]0 is the total substrate concentration, and Km is the Michaelis-Menten constant. […]
(§6) the substrate Boc-Gln-Gly-Arg-AMC. […]

human β-FXIIa = target: T2, human β-FXIIa (Homo sapiens, UniProt P00748); test: as above
T2 construct: human β-FXIIa (Molecular Innovations cat #); purchased Molecular Innovations HFXIIAB; host or cells: human blood
T2 sequence (P00748 373-615 limits assumed, other chains not shown): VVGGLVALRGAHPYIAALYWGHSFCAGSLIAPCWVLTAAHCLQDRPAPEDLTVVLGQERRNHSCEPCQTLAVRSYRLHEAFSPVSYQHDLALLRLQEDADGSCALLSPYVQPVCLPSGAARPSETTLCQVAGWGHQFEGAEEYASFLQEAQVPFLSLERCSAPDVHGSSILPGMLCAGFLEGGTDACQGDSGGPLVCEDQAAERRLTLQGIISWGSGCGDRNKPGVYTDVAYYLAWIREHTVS
Experimental: as §1, §2, §3, §4, §5, §6

Recombinant mouse FXII = target: T3, Recombinant mouse FXII (Mus musculus, UniProt Q80YC5); test: Inhibition of recombinant FXIIa (rFXIIa); details: Recombinant mouse FXII, individual plates, read-out: Residual activity (%)
T3 sequence (Q80YC5 355-597 limits assumed): T1 sequence (Q80YC5 355-597 limits assumed)
T3 sequence (Q80YC5 20-354 limits assumed): T1 sequence (Q80YC5 20-354 limits assumed)

[1] = crude, coumarin labeled peptides, individual plates

SMILES: CC(C)C[C@@H]1NC(=O)[C@H](CCC(N)=O)NC(=O)[C@H](CCCNC(=N)N)NC(=O)[C@@H]2CSCCC(=O)N3CN(CN(C3)C(=O)CCSC[C@H](NC(=O)[C@@H](N)CCCNC(=N)N)C(=O)N[C@@H](Cc3ccccc3)C(=O)N[C@@H](CCCNC(=N)N)C(=O)N[C@@H](CC(C)C)C(=O)N3CCC[C@H]3C(=O)N2)C(=O)CCSC[C@@H](C(=O)N[C@@H](CCCNC(=N)N)C(N)=O)NC(=O)[C@H](CCCNC(=N)N)NC1=O [FXII618]
- IC50 (Mouse α-FXIIa; [1]): 290 nM and 312 nM and 236 nM and 289 nM and 257 nM and 228 nM and 245 nM and 286 nM and 358 nM
- Ki (Mouse α-FXIIa; purified peptide without coumarin label, read-out: Ki mouse FXIIa): 86 ± 9 nM
- IC50 (human β-FXIIa; [1]): 18.4 nM and 23.5 nM and 23.3 nM and 27.9 nM
- Residual activity of human FXIIa (human β-FXIIa; inhibitor 0.488281 nM, 0.000488281 µM): 96.6624% and 92.9553%
- remaining activity at 0.000488281 µM (human β-FXIIa; inhibitor 0.488281 nM, read-out: Residual activity of human FXIIa): 98.6%
- Residual activity of human FXIIa (human β-FXIIa; inhibitor 1.95312 nM, 0.00195312 µM): 84.5129% and 82.3772%
- remaining activity at 0.00195312 µM (human β-FXIIa; inhibitor 1.95312 nM, read-out: Residual activity of human FXIIa): 85.8%
- Residual activity of human FXIIa (human β-FXIIa; inhibitor 3.90625 nM, 0.00390625 µM): 70.1534% and 69.6521%
- remaining activity at 0.00390625 µM (human β-FXIIa; inhibitor 3.90625 nM, read-out: Residual activity of human FXIIa): 75.7%
- Residual activity of human FXIIa (human β-FXIIa; inhibitor 7.8125 nM, 0.0078125 µM): 55.0198% and 53.6523%
- remaining activity at 0.0078125 µM (human β-FXIIa; inhibitor 7.8125 nM, read-out: Residual activity of human FXIIa): 59.1%
- Residual activity of human FXIIa (human β-FXIIa; inhibitor 15.625 nM, 0.015625 µM): 36.7931% and 38.5109%
- remaining activity at 0.015625 µM (human β-FXIIa; inhibitor 15.625 nM, read-out: Residual activity of human FXIIa): 39.2%
- Residual activity of human FXIIa (human β-FXIIa; inhibitor 31.25 nM, 0.03125 µM): 21.9721% and 22.4384%
- remaining activity at 0.03125 µM (human β-FXIIa; inhibitor 31.25 nM, read-out: Residual activity of human FXIIa): 24.9%
- Residual activity of human FXIIa (human β-FXIIa; inhibitor 62.5 nM, 0.0625 µM): 12.1968% and 13.3118%
- remaining activity at 0.0625 µM (human β-FXIIa; inhibitor 62.5 nM, read-out: Residual activity of human FXIIa): 14%
- Residual activity of human FXIIa (human β-FXIIa; inhibitor 125 nM, 0.125 µM): 6.613% and 11.4379%
- remaining activity at 0.125 µM (human β-FXIIa; inhibitor 125 nM, read-out: Residual activity of human FXIIa): 7.65%
- remaining activity at […] (human β-FXIIa; inhibitor 250 nM, read-out: Residual activity of human FXIIa): 3.83%
- Residual activity of human FXIIa (human β-FXIIa; inhibitor 500 nM, 0.5 µM): 2.542% and 2.502%
- remaining activity at 0.5 µM (human β-FXIIa; inhibitor 500 nM, read-out: Residual activity of human FXIIa): 2.52%
- Residual activity of human FXIIa (human β-FXIIa; inhibitor 0.976562 / 0.976563 nM, 0.000976563 µM): 92.5507% and 90.2369%
- remaining activity at 0.000976563 µM (human β-FXIIa; inhibitor 0.976562 / 0.976563 nM, read-out: Residual activity of human FXIIa): 96.2%
- Ki (human β-FXIIa; purified peptide without coumarin label, read-out: Ki human FXIIa): 8.1 ± 0.7 nM
- remaining activity at 0.000390625 µM (Recombinant mouse FXII; peptide 0.390625 nM): 97.5%
- remaining activity at 0.00078125 µM (Recombinant mouse FXII; peptide 0.78125 nM): 99%
- remaining activity at 0.0015625 µM (Recombinant mouse FXII; peptide 1.5625 nM): 99.1%
- remaining activity at 0.003125 µM (Recombinant mouse FXII; peptide 3.125 nM): 96.3%
- remaining activity at 0.00625 µM (Recombinant mouse FXII; peptide 6.25 nM): 94%
- remaining activity at 0.0125 µM (Recombinant mouse FXII; peptide 12.5 nM): 90.3%
- remaining activity at […] (Recombinant mouse FXII; peptide 25 nM): 81.9%
- remaining activity at 0.05 µM (Recombinant mouse FXII; peptide 50 nM): 69.1%
- remaining activity at 0.1 µM (Recombinant mouse FXII; peptide 100 nM): 53%
- remaining activity at 0.2 µM (Recombinant mouse FXII; peptide 200 nM): 35.9%
- remaining activity at 0.4 µM (Recombinant mouse FXII; peptide 400 nM): 22.6%
